The structures appear in SMILES notation.

From patent US9163021B2, “Pyrrolo[3,2-c]pyridine tropomyosin-related kinase inhibitors” (Pfizer Limited, priority 2012, dated 2015) come the findings set out here.

This experiment deals with TRKA (Homo sapiens (Human), UniProt P04629). The experiment in a line: Isolated TRK enzyme assay (HTRF KinEASE-TK), PV3144 TrkA enzyme assay. Format: biochemical. To be noted: arithmetic mean where more than one reading. The method, boiled down: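 His-tagged TrkA cytoplasmic domain preactivated with ATP 20 min, then with compound 20 min at room temperature before 1 µM final biotin-TK substrate; HTRF 665/620 nm read.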
Sequence of TRKA (P04629 441-796): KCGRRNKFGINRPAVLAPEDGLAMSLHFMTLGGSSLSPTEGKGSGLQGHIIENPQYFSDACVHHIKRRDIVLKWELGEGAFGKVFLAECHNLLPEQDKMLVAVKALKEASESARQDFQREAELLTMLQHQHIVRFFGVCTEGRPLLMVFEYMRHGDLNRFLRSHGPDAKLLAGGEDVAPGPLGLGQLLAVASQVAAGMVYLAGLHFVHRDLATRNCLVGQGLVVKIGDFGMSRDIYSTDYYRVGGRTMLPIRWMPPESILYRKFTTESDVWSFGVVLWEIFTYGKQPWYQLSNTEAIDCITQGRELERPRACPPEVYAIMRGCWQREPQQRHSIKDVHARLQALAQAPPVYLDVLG
(Time-resolved FRET reads energy transfer from a long-lived donor to a nearby acceptor.)
One may read the IC50 as the concentration needed to halve the response being measured. `CC(CO)n1cc(C(=O)c2cncc(NC(=O)Cn3ccc(C(F)(F)F)n3)c2)c2cnccc21` (stereo not shown) [Example 75, N-(5-{[1-(1-hydroxypropan-2-yl)-1H-pyrrolo[3,2-c]pyridin-3-yl]carbonyl}pyridin-3-yl)-2-[3-(trifluoromethyl)-1H-pyrazol-1-yl]acetamide] returned an IC50 of 0.0449 µM. As for `Cc1oc(C2CC2)nc1CC(=O)Nc1cc(C(=O)c2cn(C(C)C)c3ccncc23)ccn1` [Example 78, 2-(2-cyclopropyl-5-methyl-1,3-oxazol-4-yl)-N-(4-{[1-(propan-2-yl)-1H-pyrrolo[3,2-c]pyridin-3-yl]carbonyl}pyridin-2-yl)acetamide], the figure is 0.0158 µM; as for `CC(C)n1cc(C(=O)c2ccnc(NC(=O)Cc3nc(C4CC4)oc3C3CC3)c2)c2cnccc21` [Example 79, 2-(2,5-dicyclopropyl-1,3-oxazol-4-yl)-N-(4-{[1-(propan-2-yl)-1H-pyrrolo[3,2-c]pyridin-3-yl]carbonyl}pyridin-2-yl)acetamide], 0.0261 µM; as for `COCc1nc(CC(=O)Nc2cc(C(=O)c3cn(C(C)C)c4ccncc34)ccn2)c(C2CC2)o1` [Example 80, 2-[5-cyclopropyl-2-(methoxymethyl)-1,3-oxazol-4-yl]-N-(4-{[1-(propan-2-yl)-1H-pyrrolo[3,2-c]pyridin-3-yl]carbonyl}pyridin-2-yl)acetamide], 0.357 µM. As for `CC(C)n1cc(C(=O)c2ccnc(NC(=O)Cc3ccc(F)cn3)c2)c2cnccc21` [Example 81, 2-(5-fluoropyridin-2-yl)-N-(4-{[1-(propan-2-yl)-1H-pyrrolo[3,2-c]pyridin-3-yl]carbonyl}pyridin-2-yl)acetamide], the figure is 0.067 µM; as for `CC(C)n1cc(C(=O)c2ccnc(NC(=O)Cc3ccc(Cl)cn3)c2)c2cnccc21` [Example 82, 2-(5-chloropyridin-2-yl)-N-(4-{[1-(propan-2-yl)-1H-pyrrolo[3,2-c]pyridin-3-yl]carbonyl}pyridin-2-yl)acetamide], 0.00616 µM; as for `CC(C)n1cc(C(=O)c2cc(NC(=O)Cn3cc(C(F)(F)F)nn3)ccn2)c2cncc(F)c21` [Example 83, N-(2-{[7-fluoro-1-(propan-2-yl)-1H-pyrrolo[3,2-c]pyridin-3-yl]carbonyl}pyridin-4-yl)-2[4-(trifluoromethyl)-1H-1,2,3-triazol-1-yl]acetamide], 0.344 µM. To `CC(C)n1cc(C(=O)c2cc(NC(=O)Cc3ccc(Cl)cc3)ccn2)c2cncc(F)c21` [Example 85, 2-(4-chlorophenyl)-N-(2-{[7-fluoro-1-(propan-2-yl)-1H-pyrrolo[3,2-c]pyridin-3-yl]carbonyl}pyridin-4-yl)acetamide] belongs 0.0233 µM; to `CC(C)n1cc(C(=O)c2cncc(NC(=O)Cn3cc(C(F)(F)F)nn3)c2)c2cncc(F)c21` [Example 87, N-(5-{[7-fluoro-1-(propan-2-yl)-1H-pyrrolo[3,2-c]pyridin-3-yl]carbonyl}pyridin-3-yl)-2-[4-(trifluoromethyl)-1H-1,2,3-triazol-1-yl]acetamide], 0.029 µM; to `CC(C)n1cc(C(=O)c2cncc(NC(=O)Cc3ccc(F)cn3)c2)c2cncc(F)c21` [Example 88, N-(5-{[7-fluoro-1-(propan-2-yl)-1H-pyrrolo[3,2-c]pyridin-3-yl]carbonyl}pyridin-3-yl)-2-(5-fluoropyridin-2-yl)acetamide], 0.0684 µM.

Compound `CC(C)n1cc(C(=O)c2cncc(NC(=O)Cn3cc(C4CC4)nn3)c2)c2cncc(F)c21` [Example 89, 2-(4-cyclopropyl-1H-1,2,3-triazol-1-yl)-N-(5-{[7-fluoro-1-(propan-2-yl)-1H-pyrrolo[3,2-c]pyridin-3-yl]carbonyl}pyridin-3-yl)acetamide] gave an IC50 of 0.0824 µM.

The compound `CC(C)n1cc(C(=O)c2cncc(NC(=O)Cn3ccc(C4CC4)n3)c2)c2cncc(F)c21` [Example 90, 2-(3-cyclopropyl-1H-pyrazol-1-yl)-N-(5-{[7-fluoro-1-(propan-2-yl)-1H-pyrrolo[3,2-c]pyridin-3-yl]carbonyl}pyridin-3-yl)acetamide] displayed an IC50 of 0.0196 µM. The compound `CC(C)n1cc(C(=O)c2cncc(NC(=O)Cn3cc(C4CC4)cn3)c2)c2cncc(F)c21` [Example 91, 2-(4-cyclopropyl-1H-pyrazol-1-yl)-N-(5-{[7-fluoro-1-(propan-2-yl)-1H-pyrrolo[3,2-c]pyridin-3-yl]carbonyl}pyridin-3-yl)acetamide] yielded an IC50 of 0.015 µM. As for `CC(C)(CO)n1cc(C(=O)c2cncc(NC(=O)Cc3ccc(C#N)cc3)c2)c2cncc(F)c21` [Example 92, 2-(4-cyanophenyl)-N-(5-{[7-fluoro-1-(1-hydroxy-2-methylpropan-2-yl)-1H-pyrrolo[3,2-c]pyridin-3-yl]carbonyl}pyridin-3-yl)acetamide], the figure is 0.0398 µM. As for `CC(C)(CO)n1cc(C(=O)c2cncc(NC(=O)Cc3ccc(F)cn3)c2)c2cncc(F)c21` [Example 93, N-(5-{[7-fluoro-1-(1-hydroxy-2-methylpropan-2-yl)-1H-pyrrolo[3,2-c]pyridin-3-yl]carbonyl}pyridin-3-yl)-2-(5-fluoropyridin-2-yl)acetamide], the figure is 0.0387 µM; as for `CC(C)(CO)n1cc(C(=O)c2cncc(NC(=O)Cn3cc(C(F)(F)F)nn3)c2)c2cncc(F)c21` [Example 94, N-(5-{[7-fluoro-1-(1-hydroxy-2-methylpropan-2-yl)-1H-pyrrolo[3,2-c]pyridin-3-yl]carbonyl}pyridin-3-yl)-2-[4-(trifluoromethyl)-1H-1,2,3-triazol-1-yl]acetamide], 0.02 µM.

As for `CC(C)(CO)n1cc(C(=O)c2cncc(NC(=O)Cn3ccc(C(F)(F)F)n3)c2)c2cncc(F)c21` [Example 95, N-(5-{[7-fluoro-1-(1-hydroxy-2-methylpropan-2-yl)-1H-pyrrolo[3,2-c]pyridin-3-yl]carbonyl}pyridin-3-yl)-2-[3-(trifluoromethyl)-1H-pyrazol-1-yl]acetamide], the IC50 stood at 0.00292 µM. With `CC(C)n1cc(C(=O)c2ccnc(NC(=O)Cc3cccc(Cl)c3)c2)c2cnccc21` [Example 96, 2-(3-chlorophenyl)-N-(4-{[1-(propan-2-yl)-1H-pyrrolo[3,2-c]pyridin-3-yl]carbonyl}pyridin-2-yl)acetamide], the IC50 came out at 0.0138 µM. To `CC(C)n1cc(C(=O)c2ccnc(NC(=O)Cc3cccc(CC(C)(C)O)c3)c2)c2cnccc21` [Example 97, 2-[3-(2-hydroxy-2-methylpropyl)phenyl]-N-(4-{[1-(propan-2-yl)-1H-pyrrolo[3,2-c]pyridin-3-yl]carbonyl}pyridin-2-yl)acetamide] belongs 0.0311 µM; to `CC(C)c1cn(CC(=O)Nc2cc(C(=O)c3cn(C(C)C)c4ccncc34)ccn2)nn1` [Example 98, N-(4-{[1-(propan-2-yl)-1H-pyrrolo[3,2-c]pyridin-3-yl]carbonyl}pyridin-2-yl)-2[4-(propan-2-yl)-1H-1,2,3-triazol-1-yl]acetamide], 0.0406 µM; to `CC(C)n1cc(C(=O)c2ccnc(NC(=O)Cn3cc(Cl)cn3)c2)c2cnccc21` [Example 99, 2-(4-chloro-1H-pyrazol-1-yl)-N-(4-{[1-(propan-2-yl)-1H-pyrrolo[3,2-c]pyridin-3-yl]carbonyl}pyridin-2-yl)acetamide], 0.0429 µM. To `CC(C)n1cc(C(=O)c2cncc(NC(=O)Cc3ccccc3Cl)c2)c2cnccc21` [Example 100, 2-(2-chlorophenyl)-N-(5-{[1-(propan-2-yl)-1H-pyrrolo[3,2-c]pyridin-3-yl]carbonyl}pyridin-3-yl)acetamide] belongs 2.37 µM; to `COc1ccc(CC(=O)Nc2cc(C(=O)c3cn(C(C)C)c4ccncc34)ccn2)cc1` [Example 101, 2-(4-methoxyphenyl)-N-(4-{[1-(propan-2-yl)-1H-pyrrolo[3,2-c]pyridin-3-yl]carbonyl}pyridin-2-yl)acetamide], 0.0517 µM.

`CC(C)n1cc(C(=O)c2ccnc(NC(=O)Cn3ccnc3)c2)c2cnccc21` [Example 102, 2-(1H-imidazol-1-yl)-N-(4-{[1-(propan-2-yl)-1H-pyrrolo[3,2-c]pyridin-3-yl]carbonyl}pyridin-2-yl)acetamide] yielded an IC50 of 7.45 µM.

Regarding `CC(C)n1cc(C(=O)c2ccnc(NC(=O)Cc3ccc(Cl)cc3)c2)c2cnccc21` [Example 103, 2-(4-chlorophenyl)-N-(4-{[1-(propan-2-yl)-1H-pyrrolo[3,2-c]pyridin-3-yl]carbonyl}pyridin-2yl)acetamide], 0.0152 µM corresponded to half-maximal inhibition (IC50). As for `Cc1cc(C(F)(F)F)nn1CC(=O)Nc1cc(C(=O)c2cn(C(C)C)c3ccncc23)ccn1` [Example 104, 2-[5-methyl-3-(trifluoromethyl)-1H-pyrazol-1-yl]-N-(4-{[1-(propan-2-yl)-1H-pyrrolo[3,2-c]pyridin-3-yl]carbonyl}pyridin-2-yl)acetamide], the figure is 0.0138 µM; as for `CC(C)n1cc(C(=O)c2ccnc(NC(=O)Cc3ccccc3Cl)c2)c2cnccc21` [Example 105, 2-(2-chlorophenyl)-N-(4-{[1-(propan-2-yl)-1H-pyrrolo[3,2-c]pyridin-3-yl]carbonyl}pyridin-2-yl)acetamide], 0.108 µM. To `CC(C)n1cc(C(=O)c2ccnc(NC(=O)Cc3ccc(F)cc3F)c2)c2cnccc21` [Example 106, 2-(2,4-difluorophenyl)-N-(4-{[1-(propan-2-yl)-1H-pyrrolo[3,2-c]pyridin-3-yl]carbonyl}pyridin-2-yl)acetamide] belongs 0.0179 µM; to `CC(C)n1cc(C(=O)c2ccnc(NC(=O)Cc3ccccc3)c2)c2cnccc21` [Example 107, 2-phenyl-N-(4-{[1-(propan-2-yl)-1H-pyrrolo[3,2-c]pyridin-3-yl]carbonyl}pyridin-2-yl)acetamide], 0.064 µM. Turning to `COc1cccc(CC(=O)Nc2cc(C(=O)c3cn(C(C)C)c4ccncc34)ccn2)c1` [Example 108, 2-(3-methoxyphenyl)-N-(4-{[1-(propan-2-yl)-1H-pyrrolo[3,2-c]pyridin-3-yl]carbonyl}pyridin-2-yl)acetamide], half-maximal inhibition (IC50) was put at 0.64 µM.

For the compound `Cc1ccn(CC(=O)Nc2cc(C(=O)c3cn(C(C)C)c4ccncc34)ccn2)n1` [Example 109, 2-(3-methyl-1H-pyrazol-1-yl)-N-(4-{[1-(propan-2-yl)-1H-pyrrolo[3,2-c]pyridin-3-yl]carbonyl}pyridin-2-yl)acetamide], the midpoint of inhibition, the IC50, lay at 0.0871 µM.
